Assay results reported in publication PMC9363158 (HIV medicine, 2021).
“And” between values parts separate entries of the source, which are not always exact repeats. Identical values can stand only once. Like-named read-outs stand apart in the source and are kept apart here.

Experiments:
[1] = administered orally; cited from earlier work
[2] = target: T1, rhCYP1A2 (Homo sapiens, UniProt P05177); assay: levonorgestrel clearance by recombinant human CYP; assay type: in vitro ADME
T1 sequence (P05177 1-516): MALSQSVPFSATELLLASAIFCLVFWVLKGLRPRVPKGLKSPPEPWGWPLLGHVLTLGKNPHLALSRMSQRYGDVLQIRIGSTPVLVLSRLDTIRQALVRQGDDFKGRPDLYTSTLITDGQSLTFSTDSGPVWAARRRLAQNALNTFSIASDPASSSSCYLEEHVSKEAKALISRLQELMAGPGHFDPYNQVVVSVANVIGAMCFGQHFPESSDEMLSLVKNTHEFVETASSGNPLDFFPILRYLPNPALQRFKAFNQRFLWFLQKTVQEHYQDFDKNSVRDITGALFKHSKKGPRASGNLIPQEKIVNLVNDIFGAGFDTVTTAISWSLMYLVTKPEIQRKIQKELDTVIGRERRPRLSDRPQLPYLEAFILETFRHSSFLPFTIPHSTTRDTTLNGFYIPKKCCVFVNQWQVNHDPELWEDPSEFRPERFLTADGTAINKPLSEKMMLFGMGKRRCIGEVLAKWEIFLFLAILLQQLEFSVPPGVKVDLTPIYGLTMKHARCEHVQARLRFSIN

[3] = target: rhCYP3A4 (Homo sapiens, UniProt P08684); assay: levonorgestrel clearance by recombinant human CYP; assay type: in vitro ADME
[4] = target: T2, rhCYP2B6 (Homo sapiens, UniProt P20813); assay: levonorgestrel clearance by recombinant human CYP; assay type: in vitro ADME
T2 sequence (P20813 1-491): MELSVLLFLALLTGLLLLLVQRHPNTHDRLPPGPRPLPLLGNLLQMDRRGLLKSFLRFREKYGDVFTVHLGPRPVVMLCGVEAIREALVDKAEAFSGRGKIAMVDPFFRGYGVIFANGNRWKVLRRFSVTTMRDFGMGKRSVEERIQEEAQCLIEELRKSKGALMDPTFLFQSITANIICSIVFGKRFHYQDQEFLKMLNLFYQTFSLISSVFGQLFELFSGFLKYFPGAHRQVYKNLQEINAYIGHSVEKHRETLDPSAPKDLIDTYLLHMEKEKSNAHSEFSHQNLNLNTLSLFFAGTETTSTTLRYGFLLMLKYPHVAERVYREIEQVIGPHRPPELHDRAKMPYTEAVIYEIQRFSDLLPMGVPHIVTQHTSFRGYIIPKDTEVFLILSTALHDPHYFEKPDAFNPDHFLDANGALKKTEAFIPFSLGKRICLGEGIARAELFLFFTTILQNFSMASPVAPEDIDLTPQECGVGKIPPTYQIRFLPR

[5] = system: hepatic CYPs; assay: total apparent and systemic plasma clearance scaled from rhCYP data; assay type: in vitro ADME, human
[6] = levonorgestrel CLint.app. by cryopreserved primary human hepatocytes; assay type: in vitro ADME; settings: cryopreserved primary human hepatocytes (plated)
[7] = target: rhCYP2C19 (Homo sapiens, UniProt P33261); assay: levonorgestrel clearance by recombinant human CYP; assay type: in vitro ADME
[8] = Jadelle subdermal implants, cited from earlier work
[9] = target: rhCYP3A5 (Homo sapiens, UniProt P20815); assay: levonorgestrel clearance by recombinant human CYP; assay type: in vitro ADME
[10] = target: rhCYP2C9 (Homo sapiens, UniProt P11712); assay: levonorgestrel clearance by recombinant human CYP; assay type: in vitro ADME
[11] = cited from earlier work
[12] = system: CYP3A4
[13] = system: CYP2B6; assay: CYP gene expression in human hepatocytes; assay type: in vitro ADME
[14] = system: CYP1A2; assay: CYP gene expression in human hepatocytes; assay type: in vitro ADME
[15] = system: CYP2B6; settings: total dolutegravir up to and including 40 μM, 48 h; cited from earlier work
[16] = in vivo; cited from earlier work
[17] = system: CYP3A4; settings: total dolutegravir up to and including 40 μM, 48 h; cited from earlier work
[18] = dolutegravir protein binding in Williams' Medium E by rapid equilibrium dialysis; assay type: in vitro ADME
[19] = system: CYP3A4; assay: in vitro; settings: human, fold induction of CYP3A4 expression
[20] = system: CYP3A4; settings: read-out: mean observed Km of progesterone metabolism by CYP3A4; liver microsome studies; cited from earlier work
[21] = system: CYP2C19; settings: read-out: mean observed Km of progesterone metabolism by CYP2C19; liver microsome studies; cited from earlier work
[22] = system: CYP2C9; settings: read-out: mean observed Km of progesterone metabolism by CYP2C9; liver microsome studies; cited from earlier work
[23] = clinical observation with rifampin; cited from earlier work
[24] = scaled from rhCYP data to adult female liver (Eq. 2)
[25] = levonorgestrel 5 μM, 60 min, vs ketoconazole inhibitor control
[26] = human, cryopreserved primary human hepatocytes

rhCYP3A4, sequence (P08684 whole entry): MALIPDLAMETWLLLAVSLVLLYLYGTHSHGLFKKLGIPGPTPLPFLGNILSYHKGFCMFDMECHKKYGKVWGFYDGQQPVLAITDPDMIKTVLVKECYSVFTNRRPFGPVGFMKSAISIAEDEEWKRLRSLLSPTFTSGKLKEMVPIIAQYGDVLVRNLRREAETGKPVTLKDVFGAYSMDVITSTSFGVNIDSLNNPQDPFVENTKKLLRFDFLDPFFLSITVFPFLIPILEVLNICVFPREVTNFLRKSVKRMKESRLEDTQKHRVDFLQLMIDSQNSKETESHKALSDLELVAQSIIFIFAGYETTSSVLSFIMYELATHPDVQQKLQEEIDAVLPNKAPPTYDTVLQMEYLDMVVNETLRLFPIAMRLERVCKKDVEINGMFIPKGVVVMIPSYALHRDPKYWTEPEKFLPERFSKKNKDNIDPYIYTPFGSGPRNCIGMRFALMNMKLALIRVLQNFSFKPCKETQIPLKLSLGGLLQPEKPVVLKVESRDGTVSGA
rhCYP2C9, sequence (P11712 whole entry): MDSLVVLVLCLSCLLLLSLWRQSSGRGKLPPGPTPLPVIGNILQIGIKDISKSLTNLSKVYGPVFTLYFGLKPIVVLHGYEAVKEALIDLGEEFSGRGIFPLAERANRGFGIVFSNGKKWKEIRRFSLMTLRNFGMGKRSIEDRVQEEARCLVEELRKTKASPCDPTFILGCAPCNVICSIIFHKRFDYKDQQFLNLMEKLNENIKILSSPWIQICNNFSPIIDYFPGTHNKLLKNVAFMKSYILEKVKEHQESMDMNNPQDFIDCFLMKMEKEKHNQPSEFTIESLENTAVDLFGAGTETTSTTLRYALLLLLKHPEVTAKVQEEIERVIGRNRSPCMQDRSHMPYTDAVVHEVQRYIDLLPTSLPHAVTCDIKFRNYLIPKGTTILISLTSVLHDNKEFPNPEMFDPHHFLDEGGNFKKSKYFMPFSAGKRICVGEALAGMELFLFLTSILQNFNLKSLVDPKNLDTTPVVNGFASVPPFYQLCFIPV
rhCYP3A5, sequence (P20815 whole entry): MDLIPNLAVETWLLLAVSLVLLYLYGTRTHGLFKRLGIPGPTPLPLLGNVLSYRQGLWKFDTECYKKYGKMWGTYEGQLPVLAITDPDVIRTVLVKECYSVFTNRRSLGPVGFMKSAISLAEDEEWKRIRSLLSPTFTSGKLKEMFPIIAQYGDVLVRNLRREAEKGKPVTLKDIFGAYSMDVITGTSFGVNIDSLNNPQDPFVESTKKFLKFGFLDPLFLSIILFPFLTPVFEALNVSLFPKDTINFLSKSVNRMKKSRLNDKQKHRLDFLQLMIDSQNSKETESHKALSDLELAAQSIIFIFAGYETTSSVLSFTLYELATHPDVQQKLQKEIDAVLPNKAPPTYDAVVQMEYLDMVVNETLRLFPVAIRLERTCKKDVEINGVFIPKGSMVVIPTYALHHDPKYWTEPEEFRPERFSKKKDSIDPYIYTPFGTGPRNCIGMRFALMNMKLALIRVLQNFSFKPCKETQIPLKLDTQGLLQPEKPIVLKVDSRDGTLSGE
rhCYP2C19, sequence (P33261 whole entry): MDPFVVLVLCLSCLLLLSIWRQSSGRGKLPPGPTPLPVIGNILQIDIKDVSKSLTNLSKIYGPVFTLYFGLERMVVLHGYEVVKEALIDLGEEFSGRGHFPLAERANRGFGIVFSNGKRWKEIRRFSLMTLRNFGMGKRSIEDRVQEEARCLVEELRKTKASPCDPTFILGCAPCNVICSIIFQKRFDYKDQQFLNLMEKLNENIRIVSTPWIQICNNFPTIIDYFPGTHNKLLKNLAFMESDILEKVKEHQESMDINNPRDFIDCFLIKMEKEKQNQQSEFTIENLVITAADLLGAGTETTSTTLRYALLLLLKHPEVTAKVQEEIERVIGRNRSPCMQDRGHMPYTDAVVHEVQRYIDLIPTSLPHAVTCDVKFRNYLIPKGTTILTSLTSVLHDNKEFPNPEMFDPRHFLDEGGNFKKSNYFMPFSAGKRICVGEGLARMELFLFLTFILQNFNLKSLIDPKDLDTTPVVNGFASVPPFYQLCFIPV

In the case of `C#C[C@]1(O)CC[C@H]2[C@@H]3CCC4=CC(=O)CC[C@@H]4[C@H]3CC[C@@]21CC` [levonorgestrel], the oral bioavailability [1] is listed as “high bioavailability”, the “levonorgestrel CLint.app. rhCYP1A2” value ([2]; levonorgestrel 5 μM, 60 min, vs α-naphthoflavone inhibitor control) is listed as 0.028 ± 0.012 µL/min/pmol and the “TCLH, CYP1A2” value [2, 24] is listed as 3.4 ± 1.5 L/h. The “levonorgestrel CLint.app. mediated by rhCYP3A4” value [3, 25] was 0.182 ± 0.036 µL/min/pmol, the “total intrinsic clearance by a single CYP in the liver as a whole (TCLH), CYP3A4” value [3, 24] was 52.5 ± 10.4 L/h and the “levonorgestrel CLint.app. rhCYP2B6” value ([4]; levonorgestrel 5 μM, 60 min, vs sertraline inhibitor control) was 0.052 ± 0.004 µL/min/pmol. For the same compound, the “TCLH, CYP2B6” value [4, 24] was 2.6 ± 0.2 L/h, the “total systemic plasma clearance” value ([5]; from CLapp, fu 3% (Eq. 4)) was 2.38 ± 0.46 L/h and the “total apparent clearance (CLapp) by the hepatic CYPs measured” value ([5]; sum of TCLH of six CYPs (Eq. 3)) was 80.97 ± 15.53 L/h. The hepatocyte CLint at 1 nM [6] was 22.4 ± 5 µL/min/1e6 cells, the “levonorgestrel CLint.app. rhCYP2C19” value ([7]; levonorgestrel 5 μM, 60 min, vs (+)-N-3-benzylnirvanol inhibitor control) was 0.046 ± 0.005 µL/min/pmol and the “TCLH, CYP2C19” value [7, 24] was 1.6 ± 0.2 L/h. The “plasma concentration of levonorgestrel” value ([8]; 1 month after insertion) was 1.39 nM and 435 pg/mL, the “plasma concentration of levonorgestrel” value ([8]; 3 years after insertion) was 0.90 nM and 280 pg/mL and the “levonorgestrel CLint.app. rhCYP3A5” value [9, 25] was 0.178 ± 0.027 µL/min/pmol. The “TCLH, CYP3A5” value [9, 24] was 9.4 ± 1.4 L/h, the “levonorgestrel CLint.app. rhCYP2C9” value ([10]; levonorgestrel 5 μM, 60 min, vs sulfaphenazole inhibitor control) was 0.062 ± 0.010 µL/min/pmol and the “TCLH, CYP2C9” value [10, 24] was 11.6 ± 1.9 L/h. For the same compound, the “bound to human plasma” value [11] was 97% and the “fraction unbound in plasma (fu)” value ([11]; set from 97% binding) was 3%.

For `CCC1(c2ccccc2)C(=O)NC(=O)NC1=O` [phenobarbital], the “fold increase in CYP3A4 expression” value ([12]; human, hepatocytes) was 4.8 ± 0.7 fold, the fold induction at 72 h, 1 mM [13, 26] was 2.6 ± 1.1 and the fold induction at 72 h, 1 mM [14, 26] was 2.7 ± 0.6.

For `C[C@@H]1CCO[C@H]2Cn3cc(C(=O)NCc4ccc(F)cc4F)c(=O)c(O)c3C(=O)N12` [dolutegravir], the “effect on expression of CYP2B6” value [15] is listed as “expression of neither CYP2B6 nor CYP3A4 was affected”, the “unbound concentration range in human plasma” value [16] is listed as 24.6 to 57.2 nM and the “effect on expression of CYP3A4” value [12] is listed as “no effect”. For the same compound, the “effect on expression of CYP3A4” value [17] was “expression of neither CYP2B6 nor CYP3A4 was affected”, the “effect on expression of CYP2B6” value ([13]; dolutegravir at concentrations spanning unbound range reported in human plasma (24.6–57.2 nM), 72 h) was “no effect” and the fold induction at 72 h, 3.33 μM [13, 26] was 2.2 ± 0.3. For the same compound, the fold induction at 72 h, 10 μM [13, 26] was 2.3 ± 0.7, the fraction unbound at 4 h, 5 μM [18] was 0.43 ± 0.09 and the “induction of CYP1A2 expression (≥ two-fold above vehicle control)” value ([14]; dolutegravir 0.00033–10 μM (unbound 0.142–4310 nM), 72 h) was “did not induce the expression of CYP1A2”. It also gave a fold induction [19] of 2.3 ± 0.4.

For `CC(=O)[C@H]1CC[C@H]2[C@@H]3CCC4=CC(=O)CC[C@]4(C)[C@H]3CC[C@]12C` [progesterone], the Km [20] is listed as 80 µM, the Km [21] is listed as 37 µM and the Km [22] is listed as 46 µM.

For `CO[C@H]1/C=C/O[C@@]2(C)Oc3c(C)c(O)c4c(O)c(c(/C=N/N5CCN(C)CC5)c(O)c4c3C2=O)NC(=O)/C(C)=C\C=C\[C@H](C)[C@H](O)[C@@H](C)[C@@H](O)[C@@H](C)[C@H](OC(C)=O)[C@@H]1C` [rifampin], the fold induction at 72 h, 10 μM [13, 26] is given as 2 ± 0.5 and the “decrease of levonorgestrel exposure” value [23] is given as 58%.
